The structures appear in SMILES notation.

In experiment [1] the test system is KNBCCS6 E6/E7 immortalized keratinocytes. As to the kind of experiment: Organotypic skin reconstruction: epidermal invasion of KNBCCS6 E6/E7 keratinocytes into dermal equivalent of NBCCS6 fibroblasts (histology). The experiment is classed as cell-based, human. As to conditions: 10 mM inhibitor, 0.1% DMSO, added 24 hrs before raising at air-liquid interface; compared with FIG. 4A control (FIG. 4B, 4C). As to the method:
Organotypic skin reconstruction using KNBCCS E6/E7 was performed using standard protocols as described in (Bernerd et al., 2001). In brief 10^6 NBCCS6 primary fibroblasts cultured in standard culture medium as described above were embeded in a bovine collagen I lattice. After contraction (48 hrs) lattices were fixed on platic using a collagen glue, KNBCCS6 were then seeded (50 000 cells per lattice) within a stainless ring, left for 6 days in immersion; the day 6) before emersion (day 7), mounts were treated with appropriate concentration of SHH:PTCH pathway inhibitor with a final a 0.1% DMSO concentration until the end of experiment. Control cultures were treated with 0.1% DMSO. After 7 days of emersion at air-liquid interface, cultures were harvested for subsequent analyses including histology and assessment of tacer/reporter gene activity. (FIG. 3 and FIG. 4)
FIGS. 4B, 4C show the same as FIG. 4A, except that organotypic skin cultures were grown 24 hrs before being raised at air-liquid interface in the presence ce of […] of GDC-0449 (B) or […] (SANT1) SHH/PTCH pathway inhibitors.

For experiment [2], the system named is SHH/PTCH signaling pathway. As to the kind of experiment: Response of the immortalized keratinocyte cell line to SHH/PTCH pathway agonist and antagonists. The experiment is classed as cell-based, human. As to conditions: conclusion statement; no concentration given. As to the method: Purmorphamine (SMO agonist) and GDC-0449 (SMO antagonist) were diluted in DMSO at stock concentrations of 50 mM and 10 mM, respectively. To avoid side effects and toxicity, the final concentration of DMSO was fixed to 0.1% DMSO.
Theses cells can be expanded in a simple defined medium and they can grow easily due to immortalization. This tool is 3D organotypic culture system to evaluate the efficacy of anti-tumoral molecules specifically targeting inappropriate activation of the SHH/PTCH pathway occurring in BCC but also in numerous non BCC cancers including other cancer implicating inappropriate activation of the SHH/PTCH pathway. Assessment of inhibitor efficacy is applicable in the long term by skin regeration in vivo using animal vector including the mouse or the mini pig sytems.

Regarding `CS(=O)(=O)c1ccc(C(=O)Nc2ccc(Cl)c(-c3ccccn3)c2)c(Cl)c1` [GDC-0449], the “size and frequency of epidermal invasion” value in experiment [1] is reported as “substantially decreased”. Also, in experiment [2], the “effect on SHH/PTCH signaling pathway in immortalized human keratinocyte cell line” value (shortened to “effect on SHH/PTCH signaling pathway”) was “inhibition of the activation”.

For the compound `Cc1nn(-c2ccccc2)c(C)c1/C=N/N1CCN(Cc2ccccc2)CC1` [SANT1], in experiment [1], the “size and frequency of epidermal invasion” value is “substantially decreased”. Besides, the “effect on SHH/PTCH signaling pathway” value in experiment [2] is “inhibition of the activation”. Regarding `c1ccc2c(Oc3nc(Nc4ccc(N5CCOCC5)cc4)c4ncn(C5CCCCC5)c4n3)cccc2c1` [purmorphamine, Purmorphamine], the “effect on SHH/PTCH signaling pathway” value in experiment [2] is listed as “activation”.

Values taken from patent US20190242874A1, “HUMAN EPITHELIAL CELL LINE FOR 3-D MODELIZING OF CANCER AND TREATMENT THEREOF” (GALDERMA RESEARCH & DEVELOPMENT, priority 2011, published 2019).
